Results reported in the supplement of paper PMC10307832.

Assays:
Assay in all cases: relative viability (nuclei count vs DMSO), 5 days (fraction); higher = more cells survive
[1] = compound: CN(C)C(=N)NC(=N)N [Metformin] + Cc1cc(Nc2cc(N3CCN(C)CC3)nc(Sc3ccc(NC(=O)C4CC4)cc3)n2)n[nH]1 [Tozasertib] (partner 0.1 µM)
Summary of the method: (§1)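 Relative viability was taken as the ratio of nuclei in treated wells to nuclei in vehicle wells. Lung cancer cell lines in 1536-well plates received compounds by pin tool one day after seeding, either one drug alone or a fixed anchor-drug dose plus five library-drug doses (not always all listed) in √10 steps. Nuclei were counted on 4× images after 5 days of treatment, and values are medians of duplicate plates.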

[2] = compound: CN(C)C(=N)NC(=N)N [Metformin] + COc1cc2c(Oc3ccc(NC(=O)C4(C(=O)Nc5ccc(F)cc5)CC4)cc3F)ccnc2cc1OCCCN1CCOCC1 [Foretinib] (partner 0.25 µM)
Summary of the method: as §1

[3] = compound: N#CC1(c2ccc(NC(=O)c3cccnc3NCc3ccncc3)cc2)CCCC1 [Apatinib] + CC(C)C[C@H](NC(=O)[C@H](Cc1ccccc1)NC(=O)c1cnccn1)B(O)O [Bortezomib] (partner 0.002 µM)
Summary of the method: as §1

[4] = compound: CN(C)C(=N)NC(=N)N [Metformin] + COc1cccc2cc(-c3nc([C@H]4CC[C@H](C(=O)O)CC4)n4ncnc(N)c34)[nH]c12 [OSI-027] (partner 0.5 µM)
Summary of the method: as §1

NCI-H460
relative viability ([1]; first compound 31.62 µM): 0.59
relative viability ([1]; first compound 100 µM): 0.645
relative viability ([1]; first compound 316.23 µM): 0.187
relative viability ([1]; first compound 1000 µM): 0.734
relative viability ([2]; first compound 10 µM): 0.949
relative viability ([2]; first compound 31.62 µM): 0.998
relative viability ([2]; first compound 100 µM): 0.961
relative viability ([2]; first compound 316.23 µM): 1.02
relative viability ([2]; first compound 1000 µM): 1.03
relative viability ([3]; first compound 0.08 µM): 1.11
relative viability ([3]; first compound 0.253 µM): 1.03
relative viability ([3]; first compound 0.8 µM): 0.888
relative viability ([3]; first compound 2.53 µM): 0.98
relative viability ([3]; first compound 8 µM): 1.01
relative viability ([4]; first compound 10 µM): 0.685
relative viability ([4]; first compound 31.62 µM): 0.664
relative viability ([4]; first compound 100 µM): 0.547
relative viability ([4]; first compound 316.23 µM): 0.49
relative viability ([4]; first compound 1000 µM): 0.762
